Patent US20160222014A1, “COMPOUNDS FOR REGULATING FAK AND/OR SRC PATHWAYS” (ASANA BIOSCIENCES, LLC, priority 2013, published 2016)

Columns and labels:
[1] = biological target: T1, AURKB (Aurora B) enzyme (Homo sapiens, UniProt Q96GD4); experiment: Aurora B HTRF assay; type: biochemical; conditions: read-out: AuroraB IC50
T1 construct: purchased Invitrogen PVR 130
Summary of the method: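 HTRF kinase assay with 5 nM Aurora B and 50 nM ULight-PLK (Ser137) peptide, with a reagent at 30 μM final; 1 h at rt. Reaction stopped with EDTA, and phospho-peptide detected with 2 nM Eu-anti-P-PLK(Ser137) antibody after 1 h at rt, read as HTRF.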

[2] = biological target: JAK2 (Homo sapiens, UniProt O60674); experiment: JAK2 biochemical potency; conditions: read-out: JAK2 HTRF IC50
JAK2, sequence (O60674 whole entry, species assumed): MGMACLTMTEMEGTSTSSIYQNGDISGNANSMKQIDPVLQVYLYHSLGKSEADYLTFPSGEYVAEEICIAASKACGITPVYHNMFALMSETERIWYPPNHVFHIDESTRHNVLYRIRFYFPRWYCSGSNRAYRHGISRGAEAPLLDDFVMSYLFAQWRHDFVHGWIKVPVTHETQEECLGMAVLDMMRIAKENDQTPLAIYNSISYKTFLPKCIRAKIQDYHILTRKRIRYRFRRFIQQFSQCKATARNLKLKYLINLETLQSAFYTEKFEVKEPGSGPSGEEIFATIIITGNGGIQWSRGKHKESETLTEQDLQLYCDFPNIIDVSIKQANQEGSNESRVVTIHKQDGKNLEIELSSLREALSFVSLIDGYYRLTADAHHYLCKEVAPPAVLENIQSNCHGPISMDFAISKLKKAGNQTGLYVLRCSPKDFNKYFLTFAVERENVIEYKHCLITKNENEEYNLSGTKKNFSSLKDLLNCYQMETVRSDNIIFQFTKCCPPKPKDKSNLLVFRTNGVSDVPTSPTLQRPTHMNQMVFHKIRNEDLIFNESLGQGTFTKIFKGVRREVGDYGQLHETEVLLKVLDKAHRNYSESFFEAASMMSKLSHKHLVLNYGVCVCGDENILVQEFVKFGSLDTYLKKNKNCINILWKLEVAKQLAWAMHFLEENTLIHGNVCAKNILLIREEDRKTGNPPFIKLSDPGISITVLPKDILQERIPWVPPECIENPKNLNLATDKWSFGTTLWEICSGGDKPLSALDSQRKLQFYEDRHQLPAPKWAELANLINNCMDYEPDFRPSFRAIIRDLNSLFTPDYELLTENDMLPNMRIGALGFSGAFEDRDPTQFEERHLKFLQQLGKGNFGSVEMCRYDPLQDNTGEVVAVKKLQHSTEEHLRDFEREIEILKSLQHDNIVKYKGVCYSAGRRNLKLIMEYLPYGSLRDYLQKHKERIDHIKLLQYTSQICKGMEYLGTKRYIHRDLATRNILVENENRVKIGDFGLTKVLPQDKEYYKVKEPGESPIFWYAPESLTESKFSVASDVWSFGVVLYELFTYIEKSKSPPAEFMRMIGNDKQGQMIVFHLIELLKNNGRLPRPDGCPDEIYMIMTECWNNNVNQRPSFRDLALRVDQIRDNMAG

[3] = biological target: T2, Phospho Src(Y416) (Homo sapiens, UniProt P12931); experiment: Phospho Src(Y416) Sandwich ELISA; type: cell-based; conditions: Panc1; read-out: pSrc EC50 (μM) Panc1
T2 construct: endogenous in cells; host or cells: Panc1
T2 sequence (P12931 whole entry): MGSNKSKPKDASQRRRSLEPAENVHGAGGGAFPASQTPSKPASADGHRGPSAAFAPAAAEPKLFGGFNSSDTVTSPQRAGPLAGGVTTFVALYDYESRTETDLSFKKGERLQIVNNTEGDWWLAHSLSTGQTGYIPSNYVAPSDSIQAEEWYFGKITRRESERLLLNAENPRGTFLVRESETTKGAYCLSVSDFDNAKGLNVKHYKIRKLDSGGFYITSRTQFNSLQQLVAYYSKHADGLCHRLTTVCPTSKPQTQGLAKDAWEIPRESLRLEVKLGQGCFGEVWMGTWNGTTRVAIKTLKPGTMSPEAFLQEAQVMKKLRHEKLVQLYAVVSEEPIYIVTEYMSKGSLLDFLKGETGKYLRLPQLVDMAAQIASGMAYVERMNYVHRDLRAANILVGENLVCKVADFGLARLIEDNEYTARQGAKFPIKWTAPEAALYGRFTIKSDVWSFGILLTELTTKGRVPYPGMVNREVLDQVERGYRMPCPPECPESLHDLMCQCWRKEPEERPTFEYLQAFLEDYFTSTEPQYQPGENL
Description: E. Phospho Src(Y416) Sandwich ELISA
Phospho Src(Y416) Sandwich ELISA kit was obtained from Cell Signaling Tech.
(i) Reagent Preparation • 1. All microwell strips were brought to rt before use. • 2. 1× Wash Buffer was prepared by diluting 20× Wash Buffer (included in each PathScan® Sandwich ELISA Kit) in MilliQ® water or equivalently purified water. • 3. 1× Cell Lysis Buffer from CST #9803: 20 mM Tris (pH 7.5), 150 mM NaCl, 1 mM ethylene diamine tetraacetate (EDTA), 1 mM ethylene glycol-bis(2-aminoethyl)-N,N,N′,N′-tetraacetic acid (EGTA), 1% Triton™ X-100, 2.5 mM sodium pyrophosphate, 1 mM b-glycerophosphate, 1 mM Na3VO4, 1 μg/mL leupeptin. This buffer was stored at 4° C. for short-term use (1-2 weeks).
(ii) Preparing Cell Lysates • 1. The media was aspirated. The cells were treated by adding fresh media containing inhibitor for 1 h. The compound of Example 214 was used as reference. • 2. The cells were harvested under non-denaturing conditions by removing media and rinsing cells once with ice-cold PBS. • 3. PBS was removed, 0.5 mL ice-cold 1× Cell Lysis Buffer plus 1 mM phenylmethylsulfonylfluoride (PMSF) was added to each plate (10 cm in diameter) and the plate incubated on ice for 5 min. • 4. The cells were scraped off of the plate, transferred to an appropriate tube, and kept on ice. • 5. The lysates were sonicated on ice. • 6. Microcentrifugation was performed for 10 min at 4° C. and the supernatant transferred to a new tube. The supernatant was the cell lysate and was stored at −80° C. in single-use aliquots.
(iii) Test Procedure • 1. After the microwell strips reached rt, the required number of microwells were broken off. The microwells were placed in the strip holder. Unused microwells were resealed and stored at 4° C. immediately. • 2. 100 μL of Sample Diluent (supplied in each PathScan® Sandwich ELISA Kit, blue color) was added to a micro centrifuge tube. 100 μL of cell lysate was transferred into the tube and vortexed for a few seconds. […] Individual data sheets for each kit provided information regarding an appropriate dilution factor for lysates and kit assay results. However, dilution factors were titrated when specific cell lysates are used. • 3. 100 μL of each diluted cell lysate were added to the appropriate well. It was then sealed with tape and pressed firmly onto top of microwells. The plate was incubated for 2 h at 37° C. Alternatively, the plate was incubated overnight at 4° C., which gave the best detection of target protein. • 4. The tape was gently removed and the wells washed: • a. The plate contents were discarded into a receptacle. • b. Each well was washed 4 times with 1× Wash Buffer, 200 μL. • c. For each wash, plates were struck on fresh towels hard enough to remove the residual solution in each well, but wells were not allowed to completely dry at any time. • d. The underside of all wells was cleaned with a lint-free tissue. • 5. 100 μL of Detection Antibody (green color) was added to each well, sealed with tape and the plate incubated for 1 h at 37° C. • 6. The wash procedure was repeated as in Step 4. • 7. 100 μL of HRP-linked secondary antibody (red color) was added to each well, sealed with tape and the plate incubated plate for 30 min at 37° C. • 8. The wash procedure was repeated as in Step 4. • 9. 100 μL of TMB Substrate was added to each well, sealed with tape and the plate incubated for 10 min at 37° C. or 30 min at 25° C. • 10. 100 μL of STOP Solution was added to each well and shaken gently for a few seconds. Initial color of positive reaction was blue, which changed to yellow upon addition of STOP Solution. • 11. The results were read. • a. Visual Determination—read within 30 min after adding STOP Solution. • b. Spectrophotometric Determination—the underside of wells were wiped with a lint-free tissue and absorbance read at 450 nm within 30 min after adding STOP Solution.

[4] = biological target: T3, FAK phosphorylated at Y397 in HEK-FAK cell line overexpressing human FL FAK protein (Homo sapiens, UniProt Q05397); experiment: Cell based assay, Phospho-FAK ELISA; conditions: HEK stb; read-out: pFAK EC50 (μM) HEK stb
T3 construct: expressed in transfected cells
T3 sequence (Q05397 whole entry): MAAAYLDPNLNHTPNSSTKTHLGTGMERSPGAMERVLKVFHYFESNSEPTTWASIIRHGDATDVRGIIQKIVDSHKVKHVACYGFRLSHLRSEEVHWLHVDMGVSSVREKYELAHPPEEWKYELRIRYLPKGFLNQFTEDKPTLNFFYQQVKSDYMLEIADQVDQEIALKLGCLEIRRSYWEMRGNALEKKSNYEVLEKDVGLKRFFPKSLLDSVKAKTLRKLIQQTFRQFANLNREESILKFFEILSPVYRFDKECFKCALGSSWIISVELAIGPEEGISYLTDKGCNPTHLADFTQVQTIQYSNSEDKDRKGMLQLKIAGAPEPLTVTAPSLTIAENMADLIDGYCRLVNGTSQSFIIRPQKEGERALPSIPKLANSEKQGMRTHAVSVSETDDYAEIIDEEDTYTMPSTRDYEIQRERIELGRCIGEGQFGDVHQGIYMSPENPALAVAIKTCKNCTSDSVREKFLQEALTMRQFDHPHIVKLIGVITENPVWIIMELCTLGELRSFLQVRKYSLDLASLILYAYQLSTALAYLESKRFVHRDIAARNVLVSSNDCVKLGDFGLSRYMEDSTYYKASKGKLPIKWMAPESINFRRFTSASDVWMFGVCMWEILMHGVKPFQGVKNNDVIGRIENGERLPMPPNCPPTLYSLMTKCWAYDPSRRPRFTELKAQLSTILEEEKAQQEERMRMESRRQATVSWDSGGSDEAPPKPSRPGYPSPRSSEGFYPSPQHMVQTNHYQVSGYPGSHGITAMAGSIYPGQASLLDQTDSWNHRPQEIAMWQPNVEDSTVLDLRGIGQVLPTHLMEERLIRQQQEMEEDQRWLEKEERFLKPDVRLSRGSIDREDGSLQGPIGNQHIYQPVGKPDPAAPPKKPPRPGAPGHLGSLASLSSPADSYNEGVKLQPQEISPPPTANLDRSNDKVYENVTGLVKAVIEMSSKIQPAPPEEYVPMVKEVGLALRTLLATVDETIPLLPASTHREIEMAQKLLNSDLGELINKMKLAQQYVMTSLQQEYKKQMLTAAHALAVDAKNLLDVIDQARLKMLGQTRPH
Summary of the method: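 Stable HEK293 line overexpressing full-length human FAK, kept under 0.8 mg/mL Zeocin. In lysates, FAK Y397 autophosphorylation was measured by sandwich ELISA: total-FAK capture antibody, biotinylated pY397-specific detection antibody, streptavidin-HRP with TMB substrate.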

[5] = biological target: T4, recombinant human FAK1 (Homo sapiens, UniProt Q05397); experiment: FAK1 HTRF assay; type: biochemical
T4 construct: fused on or other part: N-terminal 6xHis tag
T4 sequence (Q05397 422-680 limits assumed): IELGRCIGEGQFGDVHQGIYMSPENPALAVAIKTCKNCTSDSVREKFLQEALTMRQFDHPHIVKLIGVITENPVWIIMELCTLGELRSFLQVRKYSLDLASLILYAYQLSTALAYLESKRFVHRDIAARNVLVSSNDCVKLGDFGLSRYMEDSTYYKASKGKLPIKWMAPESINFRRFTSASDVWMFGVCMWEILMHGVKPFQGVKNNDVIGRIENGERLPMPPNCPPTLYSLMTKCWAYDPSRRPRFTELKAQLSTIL
Summary of the method: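 His-tagged human FAK1 (residues 692–end, Sf9-expressed), 10 nM final, with 0.5 μM biotinylated gastrin-precursor Tyr87 peptide and a 10 μM final reagent in pH 7.4 buffer, 45 min at rt. Detection used Eu anti-pTyr antibody plus SA-APC (665/620 nm). Compounds top concentration 10 μM; IC50 from % inhibition.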

[6] = tested on: MIA PaCa-2 human pancreatic tumor; conditions: oral administration, cited from earlier work
[7] = tested on: FAK autophosphorylation at Tyrosine397 and Akt phosphorylation at Serine473; conditions: 4T1 breast carcinoma; cited from earlier work
[8] = tested on: 4T1 orthotopic breast carcinoma; conditions: cited from earlier work
[9] = tested on: panel of pancreatic cancer cell lines; conditions: read-out: anti-proliferative IC50; cited from earlier work
[10] = tested on: prostate and pancreatic cancer xenograft; conditions: prostate and pancreatic cancer xenograft models; cited from earlier work
[11] = tested on: cell migration; conditions: concomitant with inhibition of focal adhesion turnover; cited from earlier work
[12] = tested on: cell proliferation and apoptosis; conditions: cited from earlier work
[13] = 100 mg/kg intraperitoneal, i.p.; cited from earlier work
[14] = tested on: tumor FAK Tyr-397 phosphorylation; conditions: 100 mg/kg intraperitoneal, i.p.; cited from earlier work
[15] = tested on: CSC population in 2 human breast cancer cell lines; conditions: 2 human breast cancer cell lines in vitro and in xenografts; cited from earlier work

T1 sequence (Q96GD4 whole entry): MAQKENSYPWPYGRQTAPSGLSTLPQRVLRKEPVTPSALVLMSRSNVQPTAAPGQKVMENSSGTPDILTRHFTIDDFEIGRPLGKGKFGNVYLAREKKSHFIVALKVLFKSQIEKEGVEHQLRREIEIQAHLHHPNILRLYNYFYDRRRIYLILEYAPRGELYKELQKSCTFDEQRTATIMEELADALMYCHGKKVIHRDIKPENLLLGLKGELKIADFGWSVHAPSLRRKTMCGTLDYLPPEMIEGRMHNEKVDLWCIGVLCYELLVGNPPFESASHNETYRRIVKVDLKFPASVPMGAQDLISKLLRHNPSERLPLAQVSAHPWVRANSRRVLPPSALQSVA

Row | SMILES | IC50 [1] [nM] | IC50 [2] [nM] | EC50 [3] [µM] | further results
1 | O=C1CCc2cc(Nc3ncc4ccn(Cc5ccccc5OC(F)F)c4n3)ccc2N1 [Example 18] | < 20 | < 20 | > 1 | 
2 | O=C1CCc2cc(Nc3ncc4ccn(S(=O)(=O)c5ccccc5OC(F)(F)F)c4n3)ccc2N1 [Example 43] |  | < 20 | > 1 | 
3 | CN(c1ncccc1Cn1ccc2cnc(Nc3ccc(N4CCOCC4)cc3)nc21)S(C)(=O)=O [Example 76] |  | < 20 | > 1 | 
4 | CN(c1ncccc1Cn1ccc2cnc(Nc3cccc(NC(=O)C(C)(C)O)c3)nc21)S(C)(=O)=O [Example 79] |  | < 20 | > 1 | 
5 | CN(c1ncccc1Cn1ccc2cnc(Nc3cccc(N4CCNCC4)c3)nc21)S(C)(=O)=O [Example 176] | < 20 | < 20 | > 1 | 
6 | CNC(=O)c1ccccc1Nc1nc(Nc2ccc(N3CCOCC3)cc2OC)ncc1Cl [NVP-TAE226] |  |  |  | body weight loss ([6]; MIA PaCa-2 model): no body weight loss; MIA PaCa-2 human pancreatic tumor growth [6]: efficiently inhibited; Inhibition of FAK autophosphorylation at Tyrosine397 and Akt phosphorylation at Serine473 [7]: observed in a dose-dependent manner; 4T1 murine breast tumor growth and metastasis to the lung ([8]; oral administration, dose-dependent): inhibited; IC50 [9]: 760 nM
7 | CN(c1ncccc1CNc1nc(Nc2ccc3c(c2)CC(=O)N3)ncc1C(F)(F)F)S(C)(=O)=O [PF-562,271, N-methyl-N-(3-(((2-((2-oxoindolin-5-yl)amino)-5-(trifluoromethyl)pyrimidin-4-yl)amino)methyl)pyridin-2-yl)methanesulfonamide] |  |  |  | antitumor efficacy [10]: good antitumor efficacy and tumor regression; toxicity [10]: no observed toxicity
8 | CS(=O)(=O)c1cccc(CNc2nc(Nc3ccc4c(c3)CCC(=O)N4)ncc2C(F)(F)F)c1 [PF-573,228] |  |  |  | chemotactic and haptotactic migration [11]: inhibited; effect on cell proliferation and apoptosis [12]: minimal to no effect
9 | CNC(=O)c1ccccc1Nc1cc(Nc2ccc(N3CCOCC3)cc2OC)ncc1C(F)(F)F [PND-1186] |  |  |  | pharmacokinetics (PK) [13]: promising; duration of inhibition of tumor FAK Tyr-397 phosphorylation [14]: 12 h; syngeneic murine 4T1 orthotopic breast carcinoma tumor growth and spontaneous metastasis to lungs ([8]; mouse, in vivo): significantly inhibited
10 | CC(C)Cc1ccc([C@@H](C)C(=O)NS(C)(=O)=O)cc1 [Repertaxin] |  |  |  | CSC population [15]: selectively depleted

Further lines, with some results ahead:

Row | IC50 [1] [nM] | IC50 [2] [nM] | EC50 [3] [µM] | SMILES | further results
11 |  | > 1000 | > 1 | N#Cc1ccccc1S(=O)(=O)n1ncc2cnc(Nc3ccc(N4CCNCC4)cc3)cc21 [Example 191] | EC50 [4]: > 1 µM
12 |  | < 20 | < 0.02 | CN(c1ncccc1Cn1ccc2cnc(Nc3ccc(N4CCNCC4)c(F)c3)nc21)S(C)(=O)=O [Example 195] | EC50 [4]: > 1 µM
13 | < 20 | < 20 | > 1 | CC(=O)Nc1ccc(Nc2ncc3ccn(S(=O)(=O)c4cccc5cccnc45)c3n2)cc1 [Example 307] | IC50 [5]: < 20 nM
14 | < 20 | < 20 | > 1 | O=S(=O)(c1cccc2cccnc12)n1ccc2cnc(Nc3ccc(N4CCC(O)CC4)cc3)nc21 [Example 310] | IC50 [5]: < 20 nM
15 |  | < 20 | > 1 | CN(c1ccccc1Cn1ccc2cnc(Nc3ccc(C(=O)NCC(C)(C)O)c(F)c3)nc21)S(C)(=O)=O [Example 508] | EC50 [4]: > 1 µM
16 | < 20 | < 20 | > 1 | CN(c1ccccc1Cn1ccc2cnc(Nc3ccc4c(c3)CC(=O)N4)nc21)S(C)(=O)=O [Example 513] | IC50 [5]: < 20 nM
